Assay: solvent given as SMILES

CCCCCCCCCCCCCCCCCC
solvation free energy, 298 K (in CC(=O)N(C)C): -12.1 kcal/mol
solvation free energy, 298 K (in CCCCCCCCC=CCCCCCCCC(=O)OCC(COC(=O)CCCCCCCC=CCCCCCCCC)OC(=O)CCCCCCCC=CCCCCCCCC): -12.4 kcal/mol
solvation free energy, 298 K (in CCCCOC(C)=O): -11.9 kcal/mol
solvation free energy, 298 K (in CCO): -10.3 kcal/mol
solvation free energy, 298 K (in O): 4.15 kcal/mol

CCCCCCCCC=CCCCCCCCC(=O)OC
solvation free energy, 298 K (in O): -2.13 kcal/mol

NCCc1ccc(O)cc1
solvation free energy, 298 K (in C=CCCCCCCC=C): -10 kcal/mol
solvation free energy, 298 K (in O): -11.8 kcal/mol

C1=CCCC=C1
solvation free energy, 298 K (in C1CCC2CCCCC2C1): -4.14 kcal/mol
solvation free energy, 298 K (in C1CCC(C2CCCCC2)CC1): -4.06 kcal/mol
solvation free energy, 298 K (in CN1CCCC1=O): -3.77 kcal/mol
solvation free energy, 298 K (in O): -0.26 kcal/mol
solvation free energy, 298 K (in c1ccc2c(c1)CCCC2): -4.31 kcal/mol
solvation free energy, 298 K (in c1ccc(C2CCCCC2)cc1): -4.19 kcal/mol

Cc1nc(NS(=O)(=O)c2ccc(N)cc2)oc1C
solvation free energy, 298 K (in O): -17.7 kcal/mol

Clc1cc(-c2ccccc2)c(Cl)c(Cl)c1Cl
solvation free energy, 298 K (in CCCCCCCCO): -11.7 kcal/mol
solvation free energy, 298 K (in O): -3.29 kcal/mol

FC(F)(Cl)C(F)(Cl)Cl
solvation free energy, 298 K (in C1CCOC1): -3.37 kcal/mol
solvation free energy, 298 K (in CC(C)=O): -3.31 kcal/mol
solvation free energy, 298 K (in CCC(C)=O): -3.36 kcal/mol
solvation free energy, 298 K (in CCOC(C)=O): -3.4 kcal/mol
solvation free energy, 298 K (in COC(C)(C)C): -3.62 kcal/mol
solvation free energy, 298 K (in COC(C)=O): -3.38 kcal/mol
solvation free energy, 298 K (in Cc1cccc(C)c1): -3.37 kcal/mol
solvation free energy, 298 K (in ClC(Cl)(Cl)Cl): -3.27 kcal/mol
solvation free energy, 298 K (in ClC(Cl)Cl): -3.46 kcal/mol
solvation free energy, 298 K (in ClCCCl): -2.8 kcal/mol
solvation free energy, 298 K (in O): 1.77 kcal/mol

CCC=C(C)C
solvation free energy, 298 K (in C=CCCCCCCCCCCCCCC): -3.42 kcal/mol
solvation free energy, 298 K (in CN1CCCC1=O): -3.06 kcal/mol
solvation free energy, 298 K (in CN(C)C=O): -3.12 kcal/mol
solvation free energy, 298 K (in O): 1.47 kcal/mol

Nc1ccc(Cc2ccc(N)cc2)cc1
solvation free energy, 298 K (in O): -16.3 kcal/mol

O=Cc1cccc(O)c1
solvation free energy, 298 K (in O): -9.52 kcal/mol

O=C(O)c1ccccc1O
solvation free energy, 298 K (in C1CCOC1): -10.8 kcal/mol
solvation free energy, 298 K (in C1COCCO1): -10.3 kcal/mol
solvation free energy, 298 K (in CC(C)(C)O): -10.4 kcal/mol
solvation free energy, 298 K (in CC(C)=O): -10.5 kcal/mol
solvation free energy, 298 K (in CC(C)CCO): -10.1 kcal/mol
solvation free energy, 298 K (in CC(C)CO): -10.2 kcal/mol
solvation free energy, 298 K (in CC(C)O): -10.4 kcal/mol
solvation free energy, 298 K (in CCC(C)=O): -10.4 kcal/mol
solvation free energy, 298 K (in CCC(C)O): -10.3 kcal/mol
solvation free energy, 298 K (in CCCC(C)O): -10.3 kcal/mol
solvation free energy, 298 K (in CCCCCCCCO): -10.2 kcal/mol
solvation free energy, 298 K (in CCCCCCO): -10.2 kcal/mol
solvation free energy, 298 K (in CCCCCO): -10.2 kcal/mol
solvation free energy, 298 K (in CCCCO): -10.3 kcal/mol
solvation free energy, 298 K (in CCCCOC(C)=O): -10 kcal/mol
solvation free energy, 298 K (in CCCCOCCCC): -9.58 kcal/mol
solvation free energy, 298 K (in CCCO): -10.3 kcal/mol
solvation free energy, 298 K (in CCO): -10.4 kcal/mol
solvation free energy, 298 K (in CCOC(C)=O): -10.1 kcal/mol
solvation free energy, 298 K (in CCOCC): -10.2 kcal/mol
solvation free energy, 298 K (in CN(C)C=O): -10.9 kcal/mol
solvation free energy, 298 K (in CO): -10.5 kcal/mol
solvation free energy, 298 K (in COC(C)(C)C): -10.2 kcal/mol
solvation free energy, 298 K (in COC(C)=O): -10.2 kcal/mol
solvation free energy, 298 K (in Clc1ccccc1): -8.36 kcal/mol
solvation free energy, 298 K (in NC=O): -9.97 kcal/mol
solvation free energy, 298 K (in O): -7.35 kcal/mol
solvation free energy, 298 K (in O=C1CCCCC1): -10.4 kcal/mol

CC(=O)OCCC(C)CCC=C(C)C (stereo not drawn)
solvation free energy, 298 K (in O): -2.99 kcal/mol

Cc1ccc(O)c(O)c1
solvation free energy, 298 K (in CCCCCC): -6.99 kcal/mol
solvation free energy, 298 K (in CCCCCCC): -7.05 kcal/mol
solvation free energy, 298 K (in CCCCCCCC): -7.02 kcal/mol
solvation free energy, 298 K (in Cc1ccc(C)cc1): -9.05 kcal/mol
solvation free energy, 298 K (in Cc1cccc(C)c1): -9.05 kcal/mol
solvation free energy, 298 K (in Cc1ccccc1C): -9.05 kcal/mol

COCOC
solvation free energy, 298 K (in ClC(Cl)(Cl)Cl): -3.66 kcal/mol
solvation free energy, 298 K (in ClC(Cl)Cl): -3.99 kcal/mol
solvation free energy, 298 K (in O): -2.95 kcal/mol
solvation free energy, 298 K (in S=C=S): -3.28 kcal/mol

c1nc[nH]n1
solvation free energy, 298 K (in COC(C)=O): -10.3 kcal/mol
solvation free energy, 298 K (in O): -11.6 kcal/mol

C1=CCC=CC1
solvation free energy, 298 K (in C1CCC2CCCCC2C1): -4.4 kcal/mol
solvation free energy, 298 K (in C1CCC(C2CCCCC2)CC1): -4.34 kcal/mol
solvation free energy, 298 K (in CCC(C)=O): -4.41 kcal/mol
solvation free energy, 298 K (in O): -0.67 kcal/mol
solvation free energy, 298 K (in c1ccc2c(c1)CCCC2): -4.58 kcal/mol
solvation free energy, 298 K (in c1ccc(C2CCCCC2)cc1): -4.49 kcal/mol

COC(OC)OC
solvation free energy, 298 K (in O): -4.42 kcal/mol

CC1CCC(C(C)C)C(=O)C1 (stereo not drawn)
solvation free energy, 298 K (in O): -2.53 kcal/mol

— the CombiSolv-Exp solvation set (Vermeire and Green 2021)
